Measurements as given in patent publication US20100273876A1, “ANTIBACTERIAL FORMULATION COMPRISING A DIALKYL SULPHOSUCCINATE AND A CARBANILIDE ANTIBACTERIAL AGENT” (priority 2007, published 2010).

Columns and labels:
[1] = test system: P. acnes NCTC 737; assay: Well diffusion assay; format: cell-based, Propionibacterium acnes; conditions: gel (Solutol HS 15, ethanol, hydroxyethyl cellulose, water) with 5% w/w DOSS and/or 0.2% w/w TCC, diluted 1:2 with placebo gel
Procedure: The propionibacteria were cultured and maintained on Wilkins-Chalgren Anaerobe Medium (agar and broth) at pH 6.0; all cultures were incubated anaerobically at 37° C. for 72 hours. A hole with a diameter of 8 mm was bored into the centre of an agar plate inoculated (swabbed) with the test-microorganism using a sterile “cork” borer (size No. 4). A volume (100 μl unless stated otherwise) of the test compound(s), either formulated or in a suitable solvent, was then placed into the bored hole. The plate was incubated under the conditions described above, following which it was examined visually for signs of microbial growth. If the test compound had antimicrobial activity, a circular zone of no growth would be obtained around the bored hole. The diameter of this zone of “inhibition” was measured using a ProtoCOL™ automated zone sizer (Synbiosis, Cambridge, UK). In general, a greater diameter and/or area of the zone of inhibition indicates a greater antimicrobial activity in the relevant test compound, although other factors such as test compound mobility through the agar gel, and the extent to which a compound is released from a formulation, may also influence the result.

[2] = test system: Strep. mutans ATCC 25175; assay: (S)DDA disc diffusion; format: cell-based, Streptococcus mutans
Procedure: The S. mutans was cultured and maintained on Wilkins-Chalgren Anaerobe Medium (agar and broth) at pH 7.0 supplemented with 1 g/L glucose; all cultures were incubated at 37° C. for 48 h in an atmosphere containing 5% CO2.
(§1) A sterile paper disc was impregnated with a sample of the test compound in a suitable solvent and 30 minutes allowed for the solvents to evaporate (where possible). The disc was then placed on an agar plate onto which the test micro-organism had been inoculated. The plate was then incubated under the conditions described above, following which it was examined visually for signs of microbial growth. If the test compound had antimicrobial activity, a circular zone of no growth would be obtained around the disc. The diameter of this zone of “inhibition” was measured using a ProtoCOL™ automated zone sizer (Synbiosis, Cambridge, UK). In general, a greater diameter and/or area of the zone of inhibition indicates a greater antimicrobial activity in the relevant test compound, although other factors such as test compound mobility through the agar gel may also influence the result.
Two test a compounds A and B were placed on a single paper disc and the above described DDA procedure repeated. An increase in diameter of the zone of inhibition, compared to the greater of the zone diameters for the two compounds individually, was taken to indicate potential antimicrobial synergy. In practical terms, an increase of greater than 5 mm could be treated as significant.
For the (S)DDA experiments; 200 μg of the DOS salts and/or the TCC were loaded onto each disc for Por. gingivalis experiments. For the Strep. mutans experiments, 200 μg of the TCC and 50 μg of DOSS were used on each disc. All the experiments were conducted in triplicate.

[3] = test system: C. xerosis NCTC 11861; assay: (S)DDA disc diffusion; format: cell-based, Corynebacterium xerosis; conditions: for DDA: 200 μg per disc
Procedure: Several Corynebacterium test species were also used in this study, namely C. mucifaciens ATCC 700355, C. striatum NCTC 764, C. xerosis NCTC 11861 and C. jeikeium NCTC 11915. These Gram-positive pathogens are closely related to organisms (aerobic diphtheroids of the genus Corynebacterium) that cause body odour. C. mucifaciens and C. striatum were cultured and maintained on Mueller-Hinton Medium (agar and broth) and were incubated aerobically at 37° C. for 24 hours. C. xerosis and C. jeikeium were cultured and maintained on Mueller-Hinton Medium containing 5% (v/v) lysed horse blood (agar and broth) and were incubated aerobically at 37° C. for 72 hours. A sterile paper disc was impregnated with a sample of the test compound in a suitable solvent and 30 minutes allowed for the solvents to evaporate (where possible). The disc was then placed on an agar plate onto which the test micro-organism had been inoculated. The plate was then incubated under the conditions described above, following which it was examined visually for signs of microbial growth. If the test compound had antimicrobial activity, a circular zone of no growth would be obtained around the disc. The diameter of this zone of “inhibition” was measured using a ProtoCOL™ automated zone sizer (Synbiosis, Cambridge, UK). In general, a greater diameter and/or area of the zone of inhibition indicates a greater antimicrobial activity in the relevant test compound, although other factors such as test compound mobility through the agar gel may also influence the result. Two test a compounds A and B were placed on a single paper disc and the above described DDA procedure repeated. An increase in diameter of the zone of inhibition, compared to the greater of the zone diameters for the two compounds individually, was taken to indicate potential antimicrobial synergy. In practical terms, an increase of greater than 5 mm could be treated as significant. The activities of DOSS and TCC were determined, using (S)DDAs, against the test organisms C. mucifaciens ATCC 700355, C. striatum NCTC 764, C. xerosis NCTC 11861 and C. jeikeium NCTC 11915. 200 μg of the DOSS and/or the TCC were loaded onto each disc. All the experiments were conducted in triplicate.

[4] = test system: B. cereus ATCC 11778; assay: (S)DDA disc diffusion; format: cell-based, Bacillus cereus; conditions: 200 μg per disc
Procedure: as §1
(§2) Two test a compounds A and B were placed on a single paper disc and the above described DDA procedure repeated. […]
(§3) The activities of DOSS and TCC were determined, using (S)DDAs, against a panel of further test micro-organisms, namely B. cereus ATCC 11778, Bact. fragilis ATCC 25285, Clost. difficile […] and E. faecalis ATCC 29212. […]

[5] = test system: Bact. fragilis ATCC 25285; assay: (S)DDA disc diffusion; format: cell-based, Bacteroides fragilis; conditions: 200 μg per disc
Procedure: as §1, §2, §3

[6] = test system: E. faecalis ATCC 29212; assay: (S)DDA disc diffusion; format: cell-based, Enterococcus faecalis; conditions: 200 μg per disc
Procedure: as §1, §2, §3

[7] = test system: Por. gingivalis NCTC 11834; assay: MBC assay; format: cell-based, Porphyromonas gingivalis
Procedure: The P. gingivalis strains were cultured and maintained on Wilkins-Chalgren Anaerobe Medium (agar and broth) at pH 7.0; all cultures were incubated anaerobically at 37° C. for 5-7 days. This assay, normally carried out after an MIC assay, determines the rnininiurn concentration of a compound that is lethal to the micro-organism being tested. […] These samples were then individually sub-cultured on antibiotic-free agar medium, under the incubation conditions described above. Following incubation they were examined visually for microbial growth.

[8] = 200 μg TCC or 50 μg DOSS per disc

`O=C(Nc1ccc(Cl)cc1)Nc1ccc(Cl)c(Cl)c1` [TCC, N-(4-chlorophenyl)-N′-(3,4-dichlorophenyl) urea] was tested, and the “(S)DDA” value [1] was 0 mm, the DDA [2, 8] was 11.95 mm and the DDA [3] was 11.65 mm. For the same molecule, the DDA [4] was 12.96 mm, the DDA [5] was 14.71 mm and the DDA [6] was 9.68 mm.
With dioctyl sodium sulphosuccinate [DOSS] the “(S)DDA” value [1] was 42.40 mm, the SDDA area increase [2] was 42.61% and the SDDA increase [2] was 4.68 mm. For the same molecule, the “SDDA with TCC” value ([2]; 50 μg DOSS + 200 μg TCC on one disc) was 28.78 mm, the DDA [2, 8] was 24.1 mm and the DDA ([2]; 200 μg per disc) was 40.25 mm. For the same molecule, the SDDA area increase [3] was 145.4%, the SDDA increase [3] was 6.6 mm and the “SDDA with TCC” value ([3]; 200 μg DOSS + 200 μg TCC on one disc) was 18.25 mm. It also gave a DDA [3] of 0.0 mm, a DDA [4] of 18.10 mm and a DDA [5] of 19.74 mm. It also gave a DDA [6] of 10.31 mm and an MBC [7] of under 0.49 µg/mL.
